Results on one molecule are retold here after patent publication US20080271210A1, “Oryza Sativa Lectin-Like Receptor Kinase 1 (Oslrk1), a Gene Involved in Plant Development” (Temasek Life Sciences Laboratory National University of …, priority 2004, published 2008).

Molecules are shown by their SMILES.

Common to all, as to assay type: in vivo, Oryza sativa
One assay has as its system Oslrk1 gene. Briefly: Northern-blot of Oslrk1 transcript in WT seedlings treated with hormones and SA. The conditions noted are these: 100 uM, 24 hours, WT seedlings. The source says: Differential Regulation of Oslrk1 Gene Expression by Hormones. Receptor-like kinases were postulated to be involved in signal transduction events as they perceive a signal via a ligand-binding extracellular domain and transmit it through the serine/threonine kinase domain into the cytosol (Shiu and Bleecker, 2001). In order to know possible factors influencing the Oslrk1 gene regulation, we analyzed promoter of the Oslrk1 (1.5 kb) for the presence of cis-acting elements using the program PlantCARE (Lescot et al., 2002). Three TGAGC motifs observed in MeJA inducible genes were found in promoter of the Oslrk1 at the positions −186, −657 and −1190. Apart from these, three GA3 inducible motifs (P-box-CCTTxt) −101, −206 and −740 bp upstream of the Oslrk1 ORF were located. In addition, five salicylic acid inducible motifs (TCA-elementcAGAAa/ga) at the positions of −321, −601, −604, −855 and −1135 were detected. The presence of MeJA, GA and SA responsive cis-elements in the Oslrk1 promoter indicated possible regulatory roles of these factors. The promoter analysis led us to study the effect of different hormones and compounds on the Oslrk1 transcription. The WT seeds were germinated for […] then seedlings were transferred to the medium containing one of the following chemicals: […], MeJA, GA3 or ABA at concentration 100 uM and SA (5 mM) for 24 hours (Materials and Methods). The total RNA isolated from the untreated and treated seedlings were used in Northern-blot hybridization using 3′ UTR of the Oslrk1 gene as a probe. The treatment with GA3 and SA repressed the Oslrk1 gene expression (FIG. 8A) by 2.5 and 3.3 times respectively. […] In order to confirm the level of induction of the Oslrk1 gene by MeJA over time, in another series of experiments, a time course was performed after hormone treatment. Seven day old seedlings were sprayed with 100 uM of MeJA solution and they were harvested in 1, 2, 4, 6, 8, and 12 hours.
RNA Isolation and Northern-blot Analysis. RNA was isolated from different organs of rice plant at different developmental stages (roots of 10-14 days old seedlings and 2 months old plants, 10-14 days old seedlings, young and mature leaves, panicles at the flowering stage and calli) using a RNeasy Plant mini kit (Qiagen,). The RNA (10 ug) was fractionated on a 1.2% denaturating formaldehyde agarose gel and transferred onto a Hybond-N^+ membrane (Amersham). The bolts were hybridized with dogoxigenin (DIG)-labeled probes in DIG Easy Hyb solution (Roche) at 50° C. After hybridization, membranes were washed twice with 2×SSC and 0.1% SDS for 15 min, then twice with 0.5×SSC and 0.1% SDS for 15 min at 68° C. Detection was carried out according to manufacturer using DIG Wash and Block Buffer set and chemiluminescent substrate CDP Star™ (Roche). DIG-labelled probe corresponded to 3′UTR and lectin domain of Oslrk1 was used. For the control of RNA quantity, DIG-probe corresponding to rice Actin1 gene was synthesized using the following primers: […]
The RT-PCRs and Northern blots were repeated at least thrice and similar results were obtained. The quantification of the intensity of the hybridization signals was performed using Quantity ONE 4.5.0 software in Gel doc XR documentation system (Bio-Rad Laboratories, Inc., USA). The level of actual expression was calculated as a ratio of intensity of specific signal (Oslrk1 3′UTR probe) to the intensity of signal of positive control (rice Act1).
Treatment of WT Seedlings with Hormones and Sugars. Two week old WT seedlings were transferred to MS medium containing 100 μM of different hormones, such as Indole 3-Acetic Acid (IAA), Abscisic acid (ABA), Methyl Jasmonate (MeJA), or Gibbrellic Acid (GA3) and 5 mM of Salicylic Acid (SA), and were grown for 24 hours under normal day/light conditions. Total RNA was extracted from root of the seedlings and whole seedlings. […]

The subject of a further assay is Oslrk5. Briefly: RT-PCR of Oslrks in treated 2 week-old seedlings. To be noted: treated vs control. The procedure: (§1) RT-PCRs were carried out on RNA samples isolated from 2 week-old seedlings treated with various sugar (FIG. 13), hormone (FIG. 14), and abiotic stresses (FIG. 15) using primers designated to either 3′ or 5′ Untranslated Regions (UTRs) of the 15 Oslrks found in Table 2. For each Oslrk two lanes in the gel are found, the first lane is the control and the second one treatment samples.
(§2) Table 3 provides a summary of all the above referenced data on the Oslrks, showing the RT-PCR results of various treatments, including sugar, hormone and abiotic stress and northern blot results on various tissues of rice plant grown in normal conditions, and the ESTs, or cDNAs availability in the database. In the table, “I” represents induced expression and “R” represents repressed expression.

Another assay deals with Oslrk11. Briefly: RT-PCR of Oslrks in treated 2 week-old seedlings. To be noted: Sh, treated vs control. As for the experimental part:
as §1, §2

A further assay relates to Oslrk12. Briefly: RT-PCR of Oslrks in treated 2 week-old seedlings. The conditions noted are these: treated vs control. As for the experimental part:
as §1, §2

The next assay concerns Oslrk10. Briefly: RT-PCR of Oslrks in treated 2 week-old seedlings. To be noted: Rt, treated vs control. As for the experimental part:
as §1, §2

In the next assay the test system is Oslrk4. Briefly: RT-PCR of Oslrks in treated 2 week-old seedlings. The conditions noted are these: treated vs control. As for the experimental part:
as §1, §2

A further assay relates to Oslrk2. Nature of the assay: RT-PCR of Oslrks in treated 2 week-old seedlings. The conditions noted are these: treated vs control. The procedure: as §1, §2
For a further assay, the system named is Oslrk1. Briefly: RT-PCR of Oslrks in treated 2 week-old seedlings. To be noted: treated vs control. The procedure:
as §1, §2

The test system of a further assay is Oslrk6. Briefly: RT-PCR of Oslrks in treated 2 week-old seedlings. To be noted: treated vs control. As for the experimental part: as §1, §2
In another assay the test system is Oslrk8. Nature of the assay: RT-PCR of Oslrks in treated 2 week-old seedlings. The conditions noted are these: Sh, treated vs control. As for the experimental part: as §1, §2
For the next assay, the system named is Oslrk14. Briefly: RT-PCR of Oslrks in treated 2 week-old seedlings. To be noted: treated vs control. As for the experimental part:
as §1, §2

For the molecule `CC1=CC(=O)CC(C)(C)[C@@]1(O)/C=C/C(C)=C\C(=O)O` [ABA, Abscisic acid], the “effect on Oslrk1 transcription” value in the assay with Oslrk1 gene was “no significant effect”. In addition, the “Oslrk5 expression by RT-PCR, Rt” value with Oslrk5 (Rt) was “I”. Also, the “Oslrk5 expression by RT-PCR, Sh” value in the assay with Oslrk5 (Sh) is on record as “I”. The “Oslrk11 expression by RT-PCR, Sh” value with Oslrk11 is “I”. For the same molecule, the “Oslrk12 expression by RT-PCR, Sh” value in the assay with Oslrk12 was “I”. The “Oslrk10 expression by RT-PCR, Rt” value with Oslrk10 is reported as “R”. The “Oslrk4 expression by RT-PCR, Rt” value in the assay with Oslrk4 (Rt) is “I”. Besides, the “Oslrk4 expression by RT-PCR, Sh” value in the assay with Oslrk4 (Sh) is on record as “I”. Further, the “Oslrk2 expression by RT-PCR, Rt” value in the assay on Oslrk2 (Rt) is “I”. Also, the “Oslrk2 expression by RT-PCR, Sh” value with Oslrk2 (Sh) is on record as “I”. The “Oslrk1 expression by RT-PCR, Sh” value with Oslrk1 was “R”. Besides, the “Oslrk6 expression by RT-PCR, Sh” value with Oslrk6 was “R”. Besides, in the assay with Oslrk8, the “Oslrk8 expression by RT-PCR, Sh” value is given as “I”. In the assay on Oslrk14, the “Oslrk14 expression by RT-PCR, Sh” value is “I”.
